Reference: patent US9975900B2, “Substituted imidazo[1,2-α]pyrazines for treating spinal muscular atrophy” (Hoffmann-La Roche Inc., priority 2014, dated 2018)
Where a name gives a salt, the structure may show the parent alone.

Experiments:
[1] = system: full length SMN2 minigene mRNA (HEK293H cells stably transfected with the SMN2-A minigene construct); experiment: RT-qPCR assay for SMN2 minigene pre-mRNA splicing in cultured cells; format: cell-based; conditions: Homo sapiens, HEK293-H, 24 hours, 7-point concentration curve, concentration giving 1.5-fold FL SMN2mini mRNA vs vehicle, read-out: EC1.5x minigene (EC1.5x concentration for production of full length SMN2 minigene mRNA)
Experimental: The reverse transcription-quantitative PCR-based (RT-qPCR) assay is used to quantify the level of the full length SMN2 minigene (referred to herein by the term “FL SMN2mini”) mRNA containing SMN2 exon 7 in a HEK293H cell line stably transfected with said minigene and treated with a test compound. Materials used and respective sources are listed below in Table 1.
The SMN2-A minigene construct was prepared as described in International Patent Application WO2009/151546A1 page 145 paragraph [00400] to page 147 paragraph [00412] (incl. FIG. 1 and FIG. 3 therein).
HEK293H cells stably transfected with the SMN2-A minigene construct (10,000 cells/well) are seeded in 200 μL of cell culture medium (DMEM plus 10% FBS, with 200 μg/mL hygromycin) in 96-well flat-bottom plates and the plate is immediately swirled to ensure proper dispersal of cells and the formation of an even monolayer of cells. Cells are allowed to attach for 6 hours. Test compounds are serially diluted 3.16-fold in 100% DMSO to generate a 7-point concentration curve. A solution of test compound (1 μL, 200× in DMSO) is added to each cell-containing well and the plate is incubated for 24 hours in a cell culture incubator (37° C., 5% CO2, 100% relative humidity). 2 replicates are prepared for each test compound concentration. The cells are then lysed in the Cells-To-Ct lysis buffer and the lysate is stored at −80° C.
Full length SMN2-A minigene and GAPDH mRNA are quantified using the primers and probes referenced in Table 2. Primer SMN Forward A (SEQ ID NO.1) hybridizes to a nucleotide sequence in exon 7 (nucleotide 22 to nucleotide 40), primer SMN Reverse A (SEQ ID NO.2) hybridizes to a nucleotide sequence in the coding sequence of Firefly luciferase, SMN Probe A (SEQ ID NO.3) hybridizes to a nucleotide sequence in exon 7 (nucleotide 50 to nucleotide 54) and exon 8 (nucleotide 1 to nucleotide 21). The combination of these three oligonucleotides detects only SMN1 or SMN2 minigenes (RT-qPCR) and will not detect endogenous SMN1 or SMN2 genes.
The SMN forward and reverse primers are used at final concentrations of 0.4 μM. The SMN probe is used at a final concentration of 0.15 μM. The GAPDH primers are used at final concentrations of 0.2 μM and the probe at 0.15 μM.
The SMN2-minigene GAPDH mix (15 μL total volume) is prepared by combining 7.5 of 2×RT-PCR buffer, 0.4 μL of 25×RT-PCR enzyme mix, 0.75 μL of 20× GAPDH primer-probe mix, […] of water, 2 μL of 10-fold diluted cell lysate, 0.06 μL of 100 μM SMN forward primer, 0.06 μL of 100 μM SMN reverse primer, and 0.225 μL of 100 μM SMN probe.
PCR is carried out at the following temperatures for the indicated time: Step 1: 48° C. (15 min); Step 2: 95° C. (10 min); Step 3: 95° C. (15 sec); Step 4: 60° C. (1 min); then repeat Steps 3 and 4 for a total of 40 cycles.
Each reaction mixture contains both SMN2-A minigene and GAPDH primers/probe sets (multiplex design), allowing simultaneous measurement of the levels of two transcripts.
The increase in the abundance of the FL SMN2mini mRNA relative to that in cells treated with vehicle control is determined from real-time PCR data using a modified ΔΔCt method (as described in Livak and Schmittgen, Methods, 2001, 25:402-8). The amplification efficiency E is calculated from the slope of the amplification curve for FL SMN2mini and GAPDH individually. The abundance of FL SMN2mini and GAPDH mRNA are then calculated as (1+E)^−Ct, where Ct is the threshold value for each amplicon. The abundance of FL SMN2mini mRNA is normalized to GAPDH mRNA abundance. The normalized FL SMN2mini mRNA abundance from test compound-treated samples is then divided by normalized FL SMN2mini mRNA abundance from vehicle-treated cells to determine the level of FL SMN2mini mRNA relative to vehicle control. […]

[2] = system: SMN protein in SMA patient fibroblast cells (GM03813); experiment: SMN protein assay (HTRF) in cultured cells; format: cell-based; conditions: Homo sapiens, SMA Type 1 patient fibroblasts, 48 hours; for EC (1.5-fold): 7-point concentration curve, concentration giving 1.5 times SMN protein vs vehicle, read-out: EC1.5x SMN protein (EC1.5x concentration for SMN protein expression); for maximal fold induction: fold increase relative to vehicle control, read-out: Max. fold increase of SMN protein
Experimental: The SMN HTRF (homogeneous time resolved fluorescence) assay is used to quantify the level of SMN protein in SMA patient fibroblast cells treated with test compounds. Materials used and respective sources are listed below in Table 4.
Cells are thawed and cultured in DMEM-10% FBS for 72 hours. Cells are trypsinized, counted and re-suspended to a concentration of 25,000 cells/mL in DMEM-10% FBS. The cell suspensions are plated at 5,000 cells per well in a 96 well microtiter plate and incubated for 3 to 5 hours. Test compounds are serially diluted 3.16-fold in 100% DMSO to generate a 7-point concentration curve. 1 μL of test compound solution is transferred to cell-containing wells and cells are incubated for 48 hours in a cell culture incubator (37° C., 5% CO2, 100% relative humidity). Triplicate samples are set up for each test compound concentration. After 48 hours, the supernatant is removed from the wells and 25 μL of the RIPA lysis buffer, containing protease inhibitors, is added to the wells and incubated with shaking at room temperature for 1 hour. 25 μL of the diluent is added and then 35 μL of the resulting lysate is transferred to a 384-well plate, where each well contains 5 μL of the antibody solution (1:100 dilution of anti-SMN d2 and anti-SMN cryptate in SMN reconstitution buffer). The plate is centrifuged for 1 minute to bring the solution to the bottom of the wells, then incubated overnight at room temperature. Fluorescence for each well of the plate at 665 nm and 620 nm is measured on an EnVision multilabel plate reader (Perkin-Elmer).
The normalized fluorescence signal is calculated for each sample, Blank and vehicle control well by dividing the signal at 665 nm by the signal at 620 nm. Normalizing the signal accounts for possible fluorescence quenching due to the matrix effect of the lysate. The ΔF value (a measurement of SMN protein abundance as a percent value) for each sample well is calculated by subtracting the normalized average fluorescence for the Blank control wells from the normalized fluorescence for each sample well, then dividing this difference by the normalized average fluorescence for the Blank control wells and multiplying the resulting value by 100. The ΔF value for each sample well represents the SMN protein abundance from test compound-treated samples. The ΔF value for each sample well is divided by the ΔF value for the vehicle control wells to calculate the fold increase in SMN protein abundance relative to the vehicle control. Table 5 provides EC1.5× concentrations for SMN protein expression that was obtained from the 7-point concentration data generated according to the above procedure for particular compounds of the present invention.
Table 6 provides the maximum fold increase of SMN protein that was obtained from the 7-point concentration data generated according to the above procedure for particular compounds of the present invention

Compound | EC (1.5-fold) [1] [µM] | EC (1.5-fold) [2] [µM] | maximal fold induction [2]
Cc1cn2cc(NC(=O)c3ccc(N4CCC(N5CCCC5)CC4)cc3F)nc(C)c2n1 [Example 48, N-(2,8-dimethylimidazo[1,2-a]pyrazin-6-yl)-2-fluoro-4-(4-pyrrolidin-1-ylpiperidin-1-yl)benzamide] | 0.0266 | 0.23 | 1.65
COc1nc(N2CCNCC2)ccc1C(=O)Nc1cn2cc(C)nc2cn1 [Example 47, 2-methoxy-N-(2-methylimidazo[1,2-a]pyrazin-6-yl)-6-piperazin-1-ylpyridine-3-carboxamide hydrochlorid] | 0.129 | 0.551 | 1.64
Cc1cn2cc(NC(=O)c3ccc(N4CCN[C@H](C)C4)cc3F)nc(C)c2n1 [Example 11, N-(2,8-dimethylimidazo[1,2-a]pyrazin-6-yl)-2-fluoro-4-[(3R)-3-methylpiperazin-1-yl]benzamide] | 0.0164 | 0.0522 | 1.8
CC[C@@H]1CN(c2ccc(C(=O)Nc3cn4cc(C)nc4c(C4CC4)n3)c(F)c2)CCN1 [Example 36, N-(8-cyclopropyl-2-methylimidazo[1,2-a]pyrazin-6-yl)-4-[(3R)-3-ethylpiperazin-1-yl]-2-fluorobenzamide hydrochloride] | 0.0534 | 1.09 | 1.53
CCOc1cc(N2CCCNCC2)ccc1C(=O)Nc1cn2cc(C)nc2cn1 [Example 9, 4-(1,4-diazepan-1-yl)-2-ethoxy-N-(2-methylimidazo[1,2-a]pyrazin-6-yl)benzamide] | 0.098 | 0.345 | 1.73
CCOc1cc(N2CCC(N3CC(OC)C3)CC2)ccc1C(=O)Nc1cn2cc(C)nc2c(C)n1 [Example 49, N-(2,8-dimethylimidazo[1,2-a]pyrazin-6-yl)-2-ethoxy-4-[4-(3-methoxyazetidin-1-yl)piperidin-1-yl]benzamide] | 0.223 | 1.98 | 1.51
Cc1cn2cc(NC(=O)c3ccc(N4CCN5CCC[C@H]5C4)cc3F)nc(C3CC3)c2n1 [Example 17, 4-[(8aS)-3,4,6,7,8,8a-hexahydro-1H-pyrrolo[1,2-a]pyrazin-2-yl]-N-(8-cyclopropyl-2-methylimidazo[1,2-a]pyrazin-6-yl)-2-fluorobenzamide] | 0.0338 | 1.7 | 1.51
Cc1cn2cc(NC(=O)c3ccc(N4CC[C@H](N5CCCC5)C4)cc3F)nc(C)c2n1 [Example 20, N-(2,8-dimethylimidazo[1,2-a]pyrazin-6-yl)-2-fluoro-4-[(3S)-3-pyrrolidin-1-ylpyrrolidin-1-yl]benzamide] | 0.023 | 0.101 | 1.7
Cc1cn2cc(NC(=O)c3ccc(N4CC[C@@H](N5CCCC5)C4)cc3F)ncc2n1 [Example 33, 2-fluoro-N-(2-methylimidazo[1,2-a]pyrazin-6-yl)-4-[(3R)-3-pyrrolidin-1-ylpyrrolidin-1-yl]benzamide] | 0.0222 | 0.122 | 1.78
Cc1cn2cc(NC(=O)c3c(F)cc(N4CCNCC4)cc3Cl)ncc2n1 [Example 28, 2-chloro-6-fluoro-N-(2-methylimidazo[1,2-a]pyrazin-6-yl)-4-piperazin-1-ylbenzamide hydrochloride] | 2.03 | 8.76 | 1.65
Cc1cn2cc(NC(=O)c3ccc(N4C[C@@H](C)N[C@@H](C)C4)cc3F)ncc2n1 [Example 27, 4-[(3S,5R)-3,5-dimethylpiperazin-1-yl]-2-fluoro-N-(2-methylimidazo[1,2-a]pyrazin-6-yl)benzamide] | 0.0167 | 1.52 | 1.85
CC[C@@H]1CN(c2ccc(C(=O)Nc3cn4cc(C)nc4cn3)c(OC)n2)CCN1 [Example 46, 6-[(3R)-3-ethylpiperazin-1-yl]-2-methoxy-N-(2-methylimidazo[1,2-a]pyrazin-6-yl)pyridine-3-carboxamide hydrochloride] | 0.189 | 0.58 | 1.67
CC[C@@H]1CN(c2ccc(C(=O)Nc3cn4cc(C)nc4cn3)c(OC)c2)CCN1 [Example 40, 4-[(3R)-3-ethylpiperazin-1-yl]-2-methoxy-N-(2-methylimidazo[1,2-a]pyrazin-6-yl)benzamide] | 0.038 | 0.388 | 1.93
CCOc1cc(N2CCN[C@@H](C)C2)ccc1C(=O)Nc1cn2cc(C)nc2cn1 [Example 4, 2-ethoxy-N-(2-methylimidazo[1,2-a]pyrazin-6-yl)-4-[(3S)-3-methylpiperazin-1-yl]benzamide] | 0.0263 | 0.122 | 1.92
Cc1cn2cc(NC(=O)c3ccc(N4CCNC(C(C)C)C4)cc3F)ncc2n1 (stereo not drawn) [Example 45, 2-fluoro-N-(2-methylimidazo[1,2-a]pyrazin-6-yl)-4-(3-propan-2-ylpiperazin-1-yl)benzamide hydrochloride] | 0.106 | 0.264 | 1.76
